Measured values published in US20090325952A1, “PYRAZOLO[3,4-B]PYRIDINE COMPOUNDS, AND THEIR USE AS PDE4 INHIBITORS” (Glaxo Group Limited, priority 2006, published 2009).
Counter-ions that a name gives are not always drawn. Each block holds one molecule with its values, some of them ahead of it.

Legend:
[1] = test system: atopic dermatitis patients; conditions: cited from earlier work
[2] = test system: LPS-induced pulmonary neutrophilia in rats; assay: In Vivo Assay 1: LPS induced pulmonary neutrophilia in rats, intratracheal administration; set-up: species or system rat; conditions: rats, i.t. dry powder blended in lactose; for arithmetic mean inhibition of LPS-induced pulmonary neutrophilia: about 2 hours prior to LPS
Text: This assay is an animal model of acute inflammation in the lung—specifically neutrophilia induced by lipopolysaccharide (LPS)—and allows the study of putative inhibition of such neutrophilia (anti-inflammatory effect) by an intratracheally (i.t.) administered PDE4 inhibitor (“drug”). The PDE4 inhibitors are suitably in dry powder, aqueous solution or aqueous suspension form. I.t. administration is one model of inhaled administration, allowing topical delivery to the lung.
Animals: Male CD (Sprague Dawley Derived) rats supplied by Charles River, United Kingdom are housed in groups of 5 rats per cage, acclimatised after delivery for at least 7 days with bedding/nesting material regularly changed, fed on SDS diet R1 pelleted food given ad lib, and supplied with daily-changed pasteurised animal grade drinking water.
Device for dry powder administration: For these studies, a Penn Century DP-4 dry powder intratracheal (i.t.) delivery device (insufflator) is used for administration of a dry powder blend of vehicle (inhalation grade lactose) and the PDE4 inhibitor compound or salt of the invention (“drug”). Each device is numbered and the sample loading chamber is unscrewed from the main device and weighed. The i.t. delivery needle is also weighed. The drug+lactose blend or inhalation grade lactose (vehicle control) is then added to the sample chamber and this is then re-weighed. The sample chamber is fitted back on to the main device to prevent any drug being lost. This procedure is repeated for all of the Penn century devices to be used in the study (one separate device for each animal). After dosing to the animals, the sample chambers and needles are re-weighed in order to determine the amount of sample that was expelled from the device.
Device for aqueous solution administration: A blunt dosing needle, whose forward end is slightly angled to the needle axis, is used, with a flexible plastic portex canula inserted into the needle. The portex cannula is inserted into the lumen of the blunt stainless steel dosing needle and this is carefully inserted into the back of the animal's throat and into the trachea via the larynx. A known volume (200 microlitres) of the vehicle (0.2% Tween 80™ in saline) or of the solution (or suspension) drug composition is administered into the trachea using a plastic syringe that is attached to the portex cannula and dosing needle. A new internal cannula is used for each different drug group. After dosing, the needle is removed from the trachea and the animals are removed from the table and continually observed until they recover from the effects of anaesthesia. The animals are then returned to the holding cages and given free access to food and water, and are observed and any unusual behavioural changes noted. (Aqueous suspensions can be handled generally similarly.)
Drugs and Materials: Lipopolysaccharide (LPS) (Serotype:0127:B8, e.g. from Sigma, UK; e.g. L3129 prepared by phenol extraction) is dissolved in phosphate-buffered saline (PBS).
For dry powder, aqueous solution or aqueous suspension administration, PDE4 inhibitors are preferably used in size-reduced (e.g. micronised) form, for example according to the Micronisation Example(s) disclosed herein.
For dry powder administration of the drug, the PDE4 inhibitor compound or salt of the invention (drug) is administered as a dry powder blended with inhalation-grade (respiratory-grade) lactose, i.e. as a dry powder composition. The target quantity of dry powder composition administered i.t. to each animal is 2 mg. This remains constant throughout the studies. To achieve different doses, blends of the drug dry powder and lactose, containing different concentrations of the PDE4 inhibitor compound or salt of the invention (drug), are prepared. […]

[3] = test system: LPS-induced nasal neutrophilia in rats; assay: In Vivo Assay 2: LPS induced nasal neutrophilia in rats, intranasal administration; set-up: species or system rat; conditions: for inhibition (arithmetic mean) of LPS-induced nasal neutrophilia: rats, i.n. aqueous solution, about 30 minutes prior to LPS
Text: This assay is an animal model of acute inflammation in the nose—specifically neutrophilia induced by lipopolysaccharide (LPS)— and allows the study of putative inhibition of such neutrophilia (anti-inflammatory effect) by an intranasally (i.n.) administered PDE4 inhibitor (“drug”). The PDE4 inhibitor is preferably in the form of an aqueous suspension or aqueous solution. Bolus, i.n. administration allows topical delivery to the nose.
Animals: Male CD rats (Sprague Dawley derived), weighing between 300-350 g are supplied by Charles River, UK and transported to the test site. On arrival at the test site, the animals are housed in groups of 4 or 5 per cage and complete a minimum acclimatisation period of 7 days. The animals are housed in solid bottomed cages using grade 8 sawdust. The bedding and nesting materials are changed 3 times per week. Diet comprises SDS diet R1 pelleted food given ad lib. Pasteurised animal grade drinking water is supplied and changed daily.
Lipopolysaccharide (Serotype: 0127:B8, e.g. available from Sigma, UK; e.g. L3129 prepared by phenol extraction) is used for all studies and is dissolved in phosphate-buffered saline (PBS).
Tween 80™ (e.g. available from Sigma e.g. 023K 01575). A mixture of 0.2% Tween 80™ in phosphate buffered saline (PBS) is prepared as vehicle for solution compositions. The Sigma catalogue 2004-2005 and The Handbook of Pharmaceutical Excipients (HPE) 4th edition 2003 pp. 479-483 define Tween 80™ as a brand of polysorbate 80 (according to HPE, polysorbate 80 is also named polyoxyethylene 20 sorbitan monooleate, i.e. having been copolymerised with about 20 moles of ethylene oxide for each mole of sorbitol and/or sorbitol anhydrides used).
The PDE4 inhibitor compound or salt of the invention (“drug”) is preferably used in size-reduced (e.g. micronised) form, for example according to the Micronisation Example(s) disclosed herein.
A solution of compound (0.7 mg/ml) is generally prepared by adding 0.2% Tween 80™ in phosphate buffered saline (PBS) to a pre-weighed micronised sample of the drug. The solution composition is sonicated, e.g. for approximately 2 min, and is observed to be a solution (if it is a solution) by visual assessment. A fixed volume of 50 microlitres (25 microlitres into each nostril) of either the drug-containing solution composition or a saline/Tween 80™ vehicle is administered to all animals. Each animal weighs, on average, 350 g. To achieve a dose of 100 μg/kg (100 ug/kg), each animal receives a total of 35 μg (35 ug) of the drug. The dose volume is 50 microlitres (25 microlitres to each nostril), and therefore a concentration of 35 μg (ug) per 50 microlitres (0.7 mg/ml) is prepared. To achieve lower dose concentrations, serial dilutions are prepared in saline/Tween 80™
Intranasal dosing with the PDE4 inhibitor (drug): Rats are anaesthetised by placing the animals in a sealed Perspex chamber and exposing them to a gaseous mixture of isofluorane (5%), nitrous oxide (2 L/min) and oxygen (1 L/min). Once anaesthetised, the animals are i.n. dosed with vehicle or PDE4 inhibitor aqueous compositions using a 10-100-microlitre-range Gilson pipette and plastic disposable tip. A volume of 25 microlitres is administered into each nostril by carefully inserting the pipette tip into the nostril and dispensing the required volume. When the dosing procedure is completed, the animal is returned to the cage and observed at regular intervals until it had recovered from the effects of the anaesthetic. […]

[4] = Gravimetric vapour sorption / moisture uptake of solid forms; assay type: physicochemical
Text: In addition, water is believed to be readily lost from the Form 2 hydrate (a) on heating to only slightly above room temperature and/or (b) on reduction in the relative humidity (R^H) (e.g. water appears to be lost from the Form 2 hydrate when the R^H is reduced to 0% R^H).

COPD patients [5] = conditions: cited from earlier work
COPD patients [6] = conditions: cited from earlier work; remark: listed apart in the source
[7] = test system: humans with histories of allergic rhinitis; conditions: orally 500 ug once daily for 9 days, intranasal allergen provocation (pollen extracts); cited from earlier work

Structure (SMILES): COc1ccc(C2CNC(=O)NC2)cc1O[C@H]1C[C@@H]2CC[C@H]1C2 [CP80,633]
inflammatory parameters ([1]; atopic dermatitis patients, 0.5% ointment, twice daily topical application): reductions of inflammatory parameters

Structure (SMILES): CCc1nc2c(cnn2CC)c(NC2CCOCC2)c1CNC(=O)c1ccc(NC(=O)CCCCCCCN(C)CCO)cc1 [Example 1A2, N-{[1,6-diethyl-4-(tetrahydro-2H-pyran-4-ylamino)-1H-pyrazolo[3,4-b]pyridin-5-yl]methyl}-4-({8-[(2-hydroxyethyl)(methyl)amino]octanoyl}amino)benzamide monohydrochloride]
arithmetic mean inhibition of LPS-induced pulmonary neutrophilia ([2]; about 10 micrograms/kg): about 29% | arithmetic mean inhibition of LPS-induced pulmonary neutrophilia ([2]; about 30 micrograms/kg): about 44% | arithmetic mean inhibition of LPS-induced pulmonary neutrophilia ([2]; about 100 micrograms/kg): about 39% | inhibition of LPS-induced pulmonary neutrophilia ([2]; about 100 micrograms/kg, about 4 hours prior to LPS): about 60% | arithmetic mean inhibition of LPS-induced pulmonary neutrophilia ([2]; about 300 micrograms/kg): about 55% | estimated ED50 for inhibition of LPS-induced nasal neutrophilia ([3]; rat, i.n., micronised, aqueous solution in 0.2% Tween 80 in PBS, about 30 minutes prior to LPS challenge): approximately 4.6 micrograms/kg body weight | inhibition (arithmetic mean) of LPS-induced nasal neutrophilia ([3]; about 1 micrograms/kg): essentially no inhibition | inhibition (arithmetic mean) of LPS-induced nasal neutrophilia ([3]; about 3 micrograms/kg): small and non-statistically-significant inhibition | inhibition (arithmetic mean) of LPS-induced nasal neutrophilia ([3]; about 10 micrograms/kg): about 62% | inhibition (arithmetic mean) of LPS-induced nasal neutrophilia ([3]; about 100 micrograms/kg): about 79%

moisture uptake, % weight gain ([4]; 25° C., RH increased from 30% to 75%): about 0.5%
Structure (SMILES): CCc1nc2c(cnn2CC)c(NC2CCOCC2)c1CNC(=O)c1ccc(NC(=O)CCCCCCCN(C)CCO)cc1 [N-{[1,6-Diethyl-4-(tetrahydro-2H-pyran-4-ylamino)-1H-pyrazolo[3,4-b]pyridin-5-yl]methyl}-4-({8-[(2-hydroxyethyl)(methyl)amino]octanoyl}amino)benzamide monohydrochloride]

Structure (SMILES): CCc1nc2c(cnn2CC)c(NC2CCOCC2)c1CNC(=O)c1ccc(NC(=O)CCCCCCCN(C)CCO)cc1 [N-{[1,6-diethyl-4-(tetrahydro-2H-pyran-4-ylamino)-1H-pyrazolo[3,4-b]pyridin-5-yl]methyl}-4-({8-[(2-hydroxyethyl)(methyl)amino]octanoyl}amino)benzamide monohydrochloride]
propensity to take up water as relative humidity increases ([4]; compared with Form 1 anhydrate): greater propensity to take up water than the crystalline monohydrochloride Form 1 anhydrate

Structure (SMILES): COc1ccc([C@]2(C#N)CC[C@@H](C(=O)O)CC2)cc1OC1CCCC1 [cilomilast]
antiinflammatory effects (COPD patients [5]): appears to have antiinflammatory effects | forced expiratory volume in 1 s (FEV1) (COPD patients [6]; 15 mg orally twice daily): appears to improve

Structure (SMILES): Nc1nc2c([nH]1)c(=O)n(CC1CC1)c(=O)n2CC1CC1 [cipamfylline]
efficacy in the treatment of atopic dermatitis patients ([1]; 0.15% cream, versus vehicle and hydrocortisone 17-butyrate (0.1%) cream): significantly more effective than vehicle, but significantly less effective than hydrocortisone 17-butyrate (0.1%) cream

Structure (SMILES): O=C(Nc1c(Cl)cncc1Cl)c1ccc(OC(F)F)c(OCC2CC2)c1 [roflumilast]
FEV1 (COPD patients [6]): small improvements | rhinal airflow during the treatment period (compared to placebo) [7]: effective in improving rhinal airflow
